{
  "source": "patent US6150332A",
  "about": "“Method and composition for lowering low density lipoprotein cholesterol” (Virginia Commonwealth University, priority 1998, dated 2000)",
  "key": {"human HepG2 cells": {"tested_on": "human HepG2 cells", "experiment": "Iodine labeled LDL binding in HepG2 cells in culture", "format": "cell-based", "details": "2 μM or 5 μM tested, added 24-48 hr after incubation began, FIG. 1a", "procedure": "(§1) With reference to FIGS. 1a-b, an experiment was conducted wherein iodine labeled LDL was incubated with HepG2 or rat hepatocytes in culture with and without cleaved α1 -antitrypsin or hypocholesterolemic peptides. The cleaved α1 -antitrypsin and hypocholesterolemic peptides were added 24-48 hr after incubation began in 2 micromolar (μM) or 5 μM concentrations. The bound LDL was quantitated by counting. The control indicates the amount of bound LDL obtained when no cleaved α1 -antitrypsin or hypocholesterolemic peptides are present. FIGS. 1a-b show maximum LDL binding occurs when 2 μM α1 -antitrypsin or its peptide derivatives are added.\nAn acetyl derivative of SEQ ID No. 16 was tested experimentally in human Hep G2 cells for LDL binding in the same manner as described above in connection with FIGS. 1a-b. […] ID No. 16. The sub-fragment was added 24-48 hours after incubation began in concentrations ranging from 0.13-1.4 μM."}, "rat hepatocytes": {"tested_on": "rat hepatocytes", "experiment": "Iodine labeled LDL binding in rat hepatocytes in culture", "format": "cell-based", "details": "2 μM or 5 μM tested, added 24-48 hr after incubation began, FIG. 1b", "procedure": "as §1"}},
  "data": [
    {"substance": "α1 -antitrypsin", "values": [
      {"measurement": "concentration at which maximum LDL binding occurs", "setting": "human HepG2 cells", "result": 2, "unit": "µM"},
      {"measurement": "concentration at which maximum LDL binding occurs", "setting": "rat hepatocytes", "result": 2, "unit": "µM"}
    ]}
  ]
}
